Assays:
[1] = test system: THP1-Dual KO-TREX1 cells; assay: THP1 TREX1 KO inhibition assay (type 1 interferon response); format: cell-based; conditions: Homo sapiens, 144 h, type 1 interferon (QUANTI-LUC), 1 μM 5-aza-2′-deoxycytidine, six days
Procedure, shortened: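 THP1-Dual KO-TREX1 cells were treated with a dose titration of compound, alone or with 1 μM 5-aza-2′-deoxycytidine, for six days at 37 °C. Type 1 interferon was read as secreted luciferase (QUANTI-LUC) in the supernatant, and viability by CellTiter-Glo luminescence.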

[2] = test system: phosphorylated TANK-binding kinase 1 (pTBK1); assay: UVB-induced pTBK1 in HaCaT cells; format: cell-based; conditions: for IC50: Homo sapiens, light or radiation study, pTBK1 response curves, 72 hours compound treatment, UVB
Protocol: pTBK1 is an important signaling molecule in regulating inflammatory responses. HaCaT cells were plated in 6-well plates at a density of ˜100 k/well in HaCaT media (DMEM, optimized 1× (Addex Bio)+ 1% pen strep (Gibco)^+ 5% heat inactivated fetal bovine serum (Gibco)). The cells were then cultured at 37° C. overnight. The next day, the cells were treated with the test compounds. Each test compound was diluted and added to media aliquots to provide desired concentrations. To add the test compound+media mixture, an equivalent amount of media from each well was aspirated and then replenished with the media dosed with the test compound. The cells were then cultured for an additional 72 hours with compound treatment prior to UVB exposure.
The media was then aspirated from the wells, with the remaining cells at least 80% confluent in each well. One mL of PBS was then added to each well, and the plate was then placed under a UVB lamp. A UVB sensor was positioned near the plate to register the plate's exposure. The cells were exposed to the UVB light until they reached 0.1 mJ/cm2. Then the plate was covered and transferred to a sterile hood for processing.
The PBS was aspirated out of the wells, and the wells were replenished with 3 mL fresh culture media. The cells were then cultured for an additional 24 hours, and samples were processed 24 hours post-UVB exposure. To process the samples, the media was aspirated, the plate placed on ice, and the cells washed with cold PBS, which was then aspirated off. Another 1 mL of cold PBS was added to each well. The cells were then scraped in the cold PBS solution and transferred to conical tubes on ice. The cells were then spun at ≥1000 RCF at 4° C. for 5 minutes. The cells were then resuspended in 1 mL of cold PBS and transferred to a microcentrifuge tube. The cells were spun at ≥1000 RCF at 4° C. for another 5 minutes, and the PBS was aspirated off. The cell pellet was prepared for lysis.
A RIPA lysis buffer (#BP-115, Boston BioProducts) was added to a Halt protease and […] inhibitor cocktail (#78440, ThermoFisher), and the mixture was cooled on ice. About 30 μL of the lysis buffer mix was added to the cells. The samples were briefly vortexed and then incubated on ice for at least 15 minutes. The cells were then spun≥1000 RCF at 4° C. for 5 minutes and the supernatant was transferred to a clean tube. The protein concentration of the cell lysate was measured using Pierce™ Rapid Gold BCA Protein Assay Kit #AF3225 (ThermoFisher). ELISA analysis was run on select samples using one of the following kits: • a. FastScan™ Phospho-TBK1/NAK (Ser172) ELISA Kit #46948 (Cell Signaling Technologies) • b. FastScan™ Total TBK1/NAK ELISA Kit #15816 (Cell Signaling Technologies) • c. FastScan™ Phospho-STING (Ser366) ELISA Kit #82083 (Cell Signaling Technologies) • d. FastScan™ Phospho-IRF-3 (Ser396) ELISA Kit #50386 (Cell Signaling Technologies) • e. FastScan™ Total IRF-3 ELISA Kit #29771 (Cell Signaling Technologies) • f. Phospho-NAK/TBK1 (S172) ELISA Kit (ab279952) (Abcam) • g. Phospho-IRF3 (S386) ELISA Kit (ab279833) (Abcam) Part II—Results
In the table “A” represents values≤0.50 μM; “B” represents values from >0.50 μM to ≤2.0 μM; “C” represents values from >2.0 μM to ≤5.0 μM; “D” represents values from >5.0 μM to ≤10 μM; and “E” represents values>10 μM.

Row | Structure (SMILES) | IC50 [1] [µM] | IC50 [2] [µM] | cytotoxicity at concentrations [2] [µM]
1 | Nc1ccn([C@H]2C[C@H](O)[C@](CO)(CCl)O2)c(=O)n1 [Compound 2, 4-amino-1-((2R,4S,5R)-5-(chloromethyl)-4-hydroxy-5-(hydroxymethyl)tetrahydrofuran-2-yl)pyrimidin-2(1H)-one] | 0.05 to 0.1 | ≤ 0.5 | –
2 | Nc1ccn([C@H]2C[C@H](O)[C@](CO)(C3CC3)O2)c(=O)n1 [Compound 16, 4-amino-1-((2R,4S,5R)-5-cyclopropyl-4-hydroxy-5-(hydroxymethyl)tetrahydrofuran-2-yl)pyrimidin-2(1H)-one] | > 1 | > 10 | –
3 | C[C@@H]1[C@H](n2ccc(N)nc2=O)O[C@](C)(CO)[C@H]1O [Compound 19, 4-amino-1-((2R,3S,4S,5R)-4-hydroxy-5-(hydroxymethyl)-3,5-dimethyltetrahydrofuran-2-yl)pyrimidin-2(1H)-one] | > 1 | > 10 | –
4 | C#C[C@]1(CO)O[C@@H](n2cnc3c(N)nc(Cl)nc32)C[C@@H]1O [Compound 25] | > 1 | – | –
5 | Nc1ccn([C@@H]2O[C@@](CO)(CCl)[C@@H](O)[C@@H]2F)c(=O)n1 [Compound 40, 4-amino-1-((2R,3S,4R,5R)-5-(chloromethyl)-3-fluoro-4-hydroxy-5-(hydroxymethyl)tetrahydrofuran-2-yl)pyrimidin-2(1H)-one] | > 1 | 2 to 5 | –
6 | CC[C@]1(CO)O[C@@H](n2ccc(N)nc2=O)C[C@@H]1O [Compound 44, 4-amino-1-((2R,4S,5R)-5-ethyl-4-hydroxy-5-(hydroxymethyl)tetrahydrofuran-2-yl)pyrimidin-2(1H)-one] | > 1 | > 10 | –
7 | CC[C@]1(CO)O[C@@H](n2ccc(N)nc2=O)[C@@H](F)[C@@H]1O [Compound 51, 4-amino-1-((2R,3S,4R,5R)-5-ethyl-3-fluoro-4-hydroxy-5-(hydroxymethyl)tetrahydrofuran-2-yl)pyrimidin-2(1H)-one] | > 1 | > 10 | –
8 | [N-]=[N+]=N[C@]1(CO)O[C@@H](n2cc(F)c(N)nc2=O)C[C@@H]1O [Compound 61, 4-amino-1-((2R,4S,5R)-5-azido-4-hydroxy-5-(hydroxymethyl)tetrahydrofuran-2-yl)-5-fluoropyrimidin-2(1H)-one] | > 1 | > 10 | –
9 | Nc1nc(=O)n([C@@H]2O[C@@](CO)(CF)[C@@H](O)[C@@H]2O)cc1F [Compound 72, 4-amino-5-fluoro-1-((2R,3S,4S,5R)-5-(fluoromethyl)-3,4-dihydroxy-5-(hydroxymethyl)tetrahydrofuran-2-yl)pyrimidin-2(1H)-one] | > 1 | 5 to 10 | –

More lines, main results first:

Row | IC50 [1] [µM] | Structure (SMILES) | IC50 [2] [µM] | cytotoxicity at concentrations [2] [µM]
10 | > 1 | C[C@@H]1[C@H](n2ccc(N)nc2=O)O[C@@](CO)(CCl)[C@H]1O [Compound 12, 4-amino-1-((2R,3S,4S,5R)-5-(chloromethyl)-4-hydroxy-5-(hydroxymethyl)-3-methyltetrahydrofuran-2-yl)pyrimidin-2(1H)-one] | > 10 | –
11 | > 1 | CO[C@@H]1[C@H](n2ccc(N)nc2=O)O[C@@](CO)(CCl)[C@H]1O [Compound 13, 4-amino-1-((2R,3S,4S,5R)-5-(chloromethyl)-4-hydroxy-5-(hydroxymethyl)-3-methoxytetrahydrofuran-2-yl)pyrimidin-2(1H)-one] | > 10 | –
12 | 0.1 to 0.25 | Nc1nc(=O)n([C@H]2C[C@H](O)[C@](CO)(CCl)O2)cc1F [Compound 14, 4-amino-1-((2R,4S,5R)-5-(chloromethyl)-4-hydroxy-5-(hydroxymethyl)tetrahydrofuran-2-yl)-5-fluoropyrimidin-2(1H)-one] | 0.5 to 2 | ≥ 30
13 | > 1 | Nc1ncnc2c1ncn2[C@H]1C[C@H](O)[C@](CO)(CCl)O1 [Compound 15, (2R,3S,5R)-5-(6-amino-9H-purin-9-yl)-2-(chloromethyl)-2-(hydroxymethyl)tetrahydrofuran-3-ol] | > 10 | –
14 | 0.25 to 1 | Nc1nc(=O)n([C@@H]2O[C@@](CO)(CCl)[C@@H](O)[C@@H]2F)cc1F [Compound 67, 4-amino-1-[(2R,3S,4R,5R)-5-(chloromethyl)-3-fluoro-4-hydroxy-5-(hydroxymethyl)oxolan-2-yl]-5-fluoropyrimidin-2-one] | 2 to 5 | –
15 | 0.25 to 1 | Nc1nc(=O)n([C@@H]2O[C@@](CO)(CF)[C@@H](O)[C@@H]2F)cc1F [Compound 85, 4-amino-5-fluoro-1-[(2R,3S,4R,5R)-3-fluoro-5-(fluoromethyl)-4-hydroxy-5-(hydroxymethyl)oxolan-2-yl] pyrimidin-2-one] | 5 to 10 | –
16 | 0.25 to 1 | Nc1nc(=O)n([C@H]2C[C@H](O)[C@](CO)(CBr)O2)cc1F [Compound 88, 4-amino-1-((2R,4S,5R)-5-(bromomethyl)-4-hydroxy-5-(hydroxymethyl)tetrahydrofuran-2-yl)-5-fluoropyrimidin-2(1H)-one] | > 10 | –
